Values of other authors as cited in patent WO2006030898A1, “Aldose reductase inhibitor” (Suntory Ltd, priority 2004, dated 2006).

Molecular target: aldose reductase (Homo sapiens, UniProt P15121)
Conditions: flavonoid glycosides; no own test described

For `O=c1c(O[C@@H]2O[C@H](CO)[C@@H](O)[C@H](O)[C@H]2O)c(-c2ccc(O)c(O)c2)oc2cc(O)cc(O)c12` [isoquercitrin], the “aldose reductase inhibitory action (in words)” value is given as “have an aldose reductase inhibitory action”.
